*1 amine or outer side, *2 acyl side, *3 side chain or, on linkers, in order; H or OH if unused. Where a SMILES comes first, the peptide text is derived from it. [ ]: non-standard residue; d: D form. The star is where a group is joined. Sta = CC(C)C[C@H](N)[C@@H](O)CC(=O)O; Isovaleryl = CC(C)CC(=O)*; CO = O=C([*:1])[*:2]
Experiments:
BTMD-SKI-1 = target: T1, BTMD-SKI-1 (Homo sapiens, UniProt Q14703); test: biochemical; assay type: biochemical
T1 sequence (Q14703 187-997 limits assumed): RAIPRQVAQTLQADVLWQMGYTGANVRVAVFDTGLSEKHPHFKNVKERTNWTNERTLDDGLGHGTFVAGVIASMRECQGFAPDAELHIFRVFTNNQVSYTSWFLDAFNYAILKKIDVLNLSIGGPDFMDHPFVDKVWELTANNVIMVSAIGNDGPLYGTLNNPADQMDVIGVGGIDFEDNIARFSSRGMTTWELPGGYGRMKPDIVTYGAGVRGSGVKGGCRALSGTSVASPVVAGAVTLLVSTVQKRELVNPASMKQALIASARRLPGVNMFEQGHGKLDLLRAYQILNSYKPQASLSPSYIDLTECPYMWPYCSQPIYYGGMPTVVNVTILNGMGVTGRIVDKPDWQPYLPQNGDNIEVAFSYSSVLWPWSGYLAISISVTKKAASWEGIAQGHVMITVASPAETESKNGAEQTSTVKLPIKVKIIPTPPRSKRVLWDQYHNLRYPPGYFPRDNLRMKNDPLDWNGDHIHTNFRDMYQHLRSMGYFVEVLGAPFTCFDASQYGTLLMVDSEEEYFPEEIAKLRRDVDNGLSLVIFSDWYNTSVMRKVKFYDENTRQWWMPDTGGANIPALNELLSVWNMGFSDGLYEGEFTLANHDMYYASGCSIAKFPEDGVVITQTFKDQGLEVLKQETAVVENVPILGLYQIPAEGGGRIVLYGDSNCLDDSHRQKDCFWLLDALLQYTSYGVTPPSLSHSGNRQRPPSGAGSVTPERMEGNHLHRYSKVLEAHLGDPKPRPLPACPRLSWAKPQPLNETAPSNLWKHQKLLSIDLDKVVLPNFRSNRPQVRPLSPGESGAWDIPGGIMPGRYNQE
T1 sequence (Q14703 17-137 partner limits assumed): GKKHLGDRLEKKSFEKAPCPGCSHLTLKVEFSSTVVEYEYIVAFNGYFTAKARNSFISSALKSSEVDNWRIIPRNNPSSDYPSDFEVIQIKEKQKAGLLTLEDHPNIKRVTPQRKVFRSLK

SKI-1 = target: T2, SKI-1 (Homo sapiens, UniProt Q14703); assay type: cell-based; set-up: The VV recombinant of full-length hSKI-1 has been described (10); expressed in transfected cells; host or cells: COS-7 cells co-infected with vv:BDNF and vv:SKI-1 (with vv:WT, vv:PIT or vv:PDX)
T2 sequence (Q14703 187-1052): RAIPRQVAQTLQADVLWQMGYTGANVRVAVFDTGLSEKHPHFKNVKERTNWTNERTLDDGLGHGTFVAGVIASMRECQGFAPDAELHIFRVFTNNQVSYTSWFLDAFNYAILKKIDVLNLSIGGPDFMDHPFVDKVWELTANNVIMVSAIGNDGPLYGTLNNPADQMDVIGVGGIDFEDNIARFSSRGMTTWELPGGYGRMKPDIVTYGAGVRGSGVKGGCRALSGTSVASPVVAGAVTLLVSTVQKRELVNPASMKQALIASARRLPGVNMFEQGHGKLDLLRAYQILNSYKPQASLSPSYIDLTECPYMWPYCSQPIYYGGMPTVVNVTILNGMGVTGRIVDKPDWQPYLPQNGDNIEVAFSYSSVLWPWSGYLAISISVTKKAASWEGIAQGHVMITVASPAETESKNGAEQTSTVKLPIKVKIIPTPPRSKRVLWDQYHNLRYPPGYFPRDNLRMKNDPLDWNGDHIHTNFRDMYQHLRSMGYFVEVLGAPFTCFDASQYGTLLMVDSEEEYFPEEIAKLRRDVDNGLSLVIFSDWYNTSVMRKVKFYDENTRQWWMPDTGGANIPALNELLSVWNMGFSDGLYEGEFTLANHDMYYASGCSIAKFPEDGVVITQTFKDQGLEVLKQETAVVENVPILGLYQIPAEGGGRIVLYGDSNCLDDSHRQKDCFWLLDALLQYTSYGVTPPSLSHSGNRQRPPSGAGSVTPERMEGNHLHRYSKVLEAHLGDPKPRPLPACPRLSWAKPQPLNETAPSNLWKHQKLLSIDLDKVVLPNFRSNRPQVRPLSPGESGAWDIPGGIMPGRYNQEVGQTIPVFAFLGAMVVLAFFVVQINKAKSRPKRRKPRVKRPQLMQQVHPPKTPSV

[1] = target: T3, peptide X, Q-hSKI-1 (132-142): Abz-VFRSLKYAESD-Y(NO2)-A
T3 chain: XVFRSLKYAESDXA

[2] = target: T4, peptide XI, Q-hSKI-1 (134-142): Abz-RSLKYAESD-Y(NO2)-A
T4 chain: XRSLKYAESDXA

[3] = read-out: Hydrolysis of SREBP-2 peptide (% of control)

Molecule: [Cl-].[Cl-].[Mg+2] [MgCl2]
- Hydrolysis of SREBP-2 peptide (% of control) (BTMD-SKI-1): 100 % of control

Molecule: cystatin
- Hydrolysis of SREBP-2 peptide (% of control) (BTMD-SKI-1): 100 % of control

Molecule: [Cl-].[Cl-].[Co+2] [CoCl2]
- Hydrolysis of SREBP-2 peptide (% of control) (BTMD-SKI-1): 100 % of control

Molecule: O=S(=O)([O-])[O-].[Cu+2] [CuSO4]
- Hydrolysis of SREBP-2 peptide (% of control) (BTMD-SKI-1): 0 % of control

Molecule: Nc1ccc(CS(=O)(=O)F)cc1 [APMSF, para-aminophenylmethylsulfonyl fluoride]
- Hydrolysis of SREBP-2 peptide (% of control) (BTMD-SKI-1): 95 % of control

Molecule: CC(C)C[C@H](NC(=O)[C@@H](NC(=O)N[C@@H](Cc1ccccc1)C(=O)O)[C@@H]1CCN=C(N)N1)C(=O)N[C@H](C=O)Cc1ccccc1 [Chymostatin]
- remaining activity at 1000 µM (BTMD-SKI-1; [3]): 100%

Molecule: O=S(=O)([O-])[O-].[Ni+2] [NiSO4]
- Hydrolysis of SREBP-2 peptide (% of control) (BTMD-SKI-1): 93 % of control

Molecule: O[C@H](CS)[C@H](O)CS (racemic) [Dithiothreitol]
- remaining activity at 10000 µM (BTMD-SKI-1; [3]): 92%

Molecule: Cc1ccc(S(=O)(=O)N[C@@H](Cc2ccccc2)C(=O)CCl)cc1 [TPCK]
- Hydrolysis of SREBP-2 peptide (% of control) (BTMD-SKI-1): 71 % of control

Molecule: α1-antitrypsin Pittsburgh [α1-PIT]
- level of the 28 kDa BDNF product (SKI-1): neither α1-PIT nor α1-PDX affect the level of the 28 kDa product

Molecule: O=C(O)CN(CCOCCOCCN(CC(=O)O)CC(=O)O)CC(=O)O [EGTA]
- Hydrolysis of SREBP-2 peptide (% of control) (BTMD-SKI-1): 15 % of control

Molecule: CC(=O)N[C@@H](CC(C)C)C(=O)N[C@@H](CC(C)C)C(=O)N[C@H](C=O)CCCNC(=N)N [Leupeptin]
- remaining activity at 1000 µM (BTMD-SKI-1; [3]): 100%

Molecule: CC(C)C[C@H](NC(=O)[C@H]1O[C@@H]1C(=O)O)C(=O)NCCCCN=C(N)N [Peptide E-64]
- Hydrolysis of SREBP-2 peptide (% of control) (BTMD-SKI-1): 100 % of control

Molecule: CC(C)CC(=O)N[C@H](C(=O)N[C@H](C(=O)N[C@@H](CC(C)C)[C@@H](O)CC(=O)N[C@@H](C)C(=O)N[C@@H](CC(C)C)[C@@H](O)CC(=O)O)C(C)C)C(C)C [Pepstatin, pepstatin] (Isovaleryl-VV[Sta]A[Sta]-OH)
- remaining activity at 100 µM (BTMD-SKI-1; [3]): 97%

Molecule: O=S(=O)([O-])[O-].[Zn+2] [ZnSO4]
- Hydrolysis of SREBP-2 peptide (% of control) (BTMD-SKI-1): 0 % of control

Molecule: Cc1ccc(S(=O)(=O)NC(CCCCN)C(=O)CCl)cc1 (stereo not drawn) [TLCK]
- Hydrolysis of SREBP-2 peptide (% of control) (BTMD-SKI-1): 100 % of control

Molecule: CC(C)[C@H](NC(=O)[C@H](CCCNC(=N)N)NC(=O)N[C@@H](Cc1ccccc1)C(=O)O)C(=O)N[C@H](C=O)CCCNC(=N)N [Antipain, antipain] ({Phe-CO}-Arg-Val-Arg-aldehyde)
- remaining activity at 1000 µM (BTMD-SKI-1; [3]): 100%

B1: soya bean trypsin inhibitor (protein, UniProt P01070 25-205, looked up)
Trypsin inhibitor A: DFVLDNEGNPLENGGTYYILSDITAFGGIRAAPTGNERCPLTVVQSRNELDKGIGTIISSPYRIRFIAEGHPLSLKFDSFAVIMLCVGIPTEWSVVEDLPEGPAVKIGENKDAMDGWFRLERVSDDEFNNYKLVFCPQQAEDDKCGDIGISIDHDDGTRRLVVSKNKPLVVQFQKLDKESL
- Hydrolysis of SREBP-2 peptide (% of control) (BTMD-SKI-1): 100 % of control

B2: 98 kDa shed form of SKI-1 (sSKI-1) (protein)
chain: RAIPRQVAQTLQADVLWQMGYTGANVRVAVFDTGLSEKHPHFKNVKERTNWTNERTLDDGLGHGTFVAGVIASMRECQGFAPDAELHIFRVFTNNQVSYTSWFLDAFNYAILKKIDVLNLSIGGPDFMDHPFVDKVWELTANNVIMVSAIGNDGPLYGTLNNPADQMDVIGVGGIDFEDNIARFSSRGMTTWELPGGYGRMKPDIVTYGAGVRGSGVKGGCRALSGTSVASPVVAGAVTLLVSTVQKRELVNPASMKQALIASARRLPGVNMFEQGHGKLDLLRAYQILNSYKPQASLSPSYIDLTECPYMWPYCSQPIYYGGMPTVVNVTILNGMGVTGRIVDKPDWQPYLPQNGDNIEVAFSYSSVLWPWSGYLAISISVTKKAASWEGIAQGHVMITVASPAETESKNGAEQTSTVKLPIKVKIIPTPPRSKRVLWDQYHNLRYPPGYFPRDNLRMKNDPLDWNGDHIHTNFRDMYQHLRSMGYFVEVLGAPFTCFDASQYGTLLMVDSEEEYFPEEIAKLRRDVDNGLSLVIFSDWYNTSVMRKVKFYDENTRQWWMPDTGGANIPALNELLSVWNMGFSDGLYEGEFTLANHDMYYASGCSIAKFPEDGVVITQTFKDQGLEVLKQETAVVENVPILGLYQIPAEGGGRIVLYGDSNCLDDSHRQKDCFWLLDALLQYTSYGVTPPSLSHSGNRQRPPSGAGSVTPERMEGNHLHRYSKVLEAHLGDPKPRPLPACPRLSWAKPQPLNETAPSNLWKHQKLLSIDLDKVVLPNFRSNRPQVRPLSPGESGAWDIPGGIMPGRYNQ
- Km(app) [1]: 31.3 µM
- Vmax(app) [1]: 34 µmol/h
- Vmax(app)/Km(app) [1]: 1.1 h^-1L^-1
- cleavage of quenched fluorogenic peptide (mass spectrometry) [1]: both peptides were cleaved at the RSLK↓ (SEQ. ID. NO. 100) site by shed SKI-1 derived from HK293 cell transfects, but not by medium obtained from HK293 empty vector transfectants
- Km(app) [2]: 8.7 µM
- Vmax(app) [2]: 56.9 µmol/h
- Vmax(app)/Km(app) [2]: 6.5 h^-1L^-1
- cleavage of quenched fluorogenic peptide (mass spectrometry) [2]: both peptides were cleaved at the RSLK↓ (SEQ. ID. NO. 100) site by shed SKI-1 derived from HK293 cell transfects, but not by medium obtained from HK293 empty vector transfectants

B3: proBDNF: 32 kDa human pro-brain-derived neurotrophic factor, precursor substrate (protein, UniProt P23560 19-247, looked up)
pro-form: APMKEANIRGQGGLAYPGVRTHGTLESVNGPKAGSRGLTSLADTFEHVIEELLDEDQKVRPNEENNKDADLYTSRVMLSSQVPLEPPLLFLLEEYKNYLDAANMSMRVRRHSDPARRGELSVCDSISEWVTAADKKTAVDMSGGTVTVLEKVPVSKGQLKQYFYETKCNPMGYTKEGCRGIDKRHWNSQCRTTQSYVRALTMDSKKRIGWRFIRIDTSCVCTLTIKRGR
modifications: pro-form
notes: 32 kDa human pro-brain-derived neurotrophic factor, precursor substrate
- intracellular cleavage of precursor by SKI-1 (SKI-1): could be cleaved intracellularly by SKI-1

Reference: US7211424B1, “Mammalian Subtilisin/kexin isozyme SKI-1: a proprotein convertase with a unique cleavage specificity” (Institut de Recherches Cliniques de Montreal, priority 1999, dated 2007)
